Results reported in paper PMC5458211, “Mitochondrial VDAC1-based peptides: Attacking oncogenic properties in glioblastoma” (Oncotarget, 2017).
Non-standard residues stand in square brackets, D forms with d. Residues, ends and D or L forms follow the SMILES beside them.

Tests used:
HK-I-GFP = HK-I-GFP detachment from mitochondria by confocal microscopy, U-87MG; assay type: cell-based, human; conditions: 7 μM, 3 h, serum-free medium
Procedure: Figure 2 Mode of action of VDAC1-based peptides – interacting with- and detaching HK, releasing Cyto c, decreasing ATP level and inducing apoptosis A. Purified HK-II was fluorescently labeled using the NanoTemper protein-labeling Kit BLUE. […] Then, 3-5 μl of the samples were loaded into MST-grade glass capillaries and thermophoresis was measured using a Monolith-NT115 apparatus, as described in Materials and methods available online in Supplemental information. […] The final DMSO concentration in control and peptide-treated cells was 0.07%. Fixed cells were visualized using confocal microscopy (Olympus 1×81), as described in Materials and Methods available online in Supplemental information. […] The levels of HK in the supernatants were quantified and are presented as relative units. D. D-ΔN-Ter-Antp induces mitochondrial inner membrane depolarization analyzed as described in Materials and Methods available online in Supplemental information. […] Cells then were analyzed for Δψ using TMRM. Δψ is presented as percentage of control. […] Release of Cyto c from the mitochondria was analyzed by immunostaining using anti-Cyto c antibodies and confocal microscopy (Olympus 1×81) as described in Materials and Methods available online in Supplemental information. […] Quantification of apoptosis in control and peptide's treated cells are presented bellow the images. […]

GL-261MG cells = assay: Cell death by PI staining and flow cytometry, GL-261MG; assay type: cell-based; conditions: mouse glioblastoma, 6 h at 37°C, serum-free medium, Suppl Fig 1
Procedure: Cells (6×10^5 /ml) were incubated in 500 μl serum-free medium with the peptide of interest for 6 h at 37°C in the presence of 5% CO2. The cells were then trypsinized, centrifuged (1500xg, 5 min), washed with PBS and analyzed for cell death using propidium iodide (PI) staining and flow cytometer (Beckton-Dickinson, San Jose, CA) and BD CellQuest Pro software. Apoptotic cell death was also analyzed by PI and annexin V-FITC staining, and by acridine orange and ethidium bromide staining and light microscopy (Olympus LX2-KSP). […]
was subsequently visualized by incubating with DAB. […]
Supplementary Figure 1: VDAC1-based peptides induce dramatic cell death of several brain tumor-derived cell […]
Ter-Antp (●) peptide in serum-free appropriate growth medium for 6 h at 37°C. Cells were harvested, washed twice with PBS and cell death was analyzed by propidium iodide (PI) staining and ﬂow cytometry. D. Summary of IC50 values (μM) for the peptides with the indicated […]
(also on this page, place not known: www.impactjournals.com/oncotarget/ Oncotarget, Materials 2017 V , Supplementary) […]

| SMILES | HK-I-GFP detachment (fluorescence distribution) (HK-I-GFP) | cell death, GL-261MG (GL-261MG cells) |
| --- | --- | --- |
| CC[C@@H](C)[C@@H](NC(=O)[C@@H](CCCCN)NC(=O)[C@H](NC(=O)[C@@H](CCC(N)=O)NC(=O)[C@@H](CCCNC(=N)N)NC(=O)[C@@H](CC(C)C)NC(=O)CNC(=O)[C@@H](Cc1ccccc1)NC(=O)CNC(=O)[C@@H](Cc1ccc(O)cc1)NC(=O)CNC(=O)[C@@H](CCCCN)NC(=O)[C@H](NC(=O)[C@@H](Cc1ccccc1)NC(=O)[C@H](NC(=O)[C@@H](CC(=O)O)NC(=O)[C@H](N)CCCNC(=N)N)C(C)C)[C@H](C)O)[C@H](C)CC)C(=O)N[C@H](Cc1c[nH]c2ccccc12)C(=O)N[C@H](Cc1ccccc1)C(=O)N[C@H](CCC(N)=O)C(=O)N[C@H](CC(N)=O)C(=O)N[C@H](CCCNC(=N)N)C(=O)N[C@H](CCCNC(=N)N)C(=O)N[C@H](CCSC)C(=O)N[C@H](CCCCN)C(=O)N[C@H](Cc1c[nH]c2ccccc12)C(=O)N[C@H](CCCCN)C(=O)N[C@H](CCCCN)C(=O)O [D-ΔN-Ter-Antp] (H-[dR][dD][dV][dF][dT][dK]G[dY]G[dF]G[dL][dR][dQ][dI][dK][dI][dW][dF][dQ][dN][dR][dR][dM][dK][dW][dK][dK]-OH; N-terminus and C-terminus assumed) | became diffuse | effectively induce cell death |
| CC[C@H](C)[C@H](NC(=O)[C@H](C)NC(=O)[C@@H](N)Cc1c[nH]cn1)C(=O)N[C@@H](Cc1ccc(O)cc1)C(=O)N1CCC[C@H]1C(=O)N[C@@H](CCCNC(=N)N)C(=O)N[C@@H](Cc1c[nH]cn1)C(=O)N[C@@H](CO)C(=O)N[C@@H](Cc1c[nH]c2ccccc12)C(=O)N[C@H](C(=O)N[C@@H](Cc1c[nH]c2ccccc12)C(=O)N[C@@H](CCC(=O)O)C(=O)N[C@H](CCCCN)C(=O)N[C@H](CCCCN)C(=O)N[C@H](CC(C)C)C(=O)N[C@H](CCC(=O)O)C(=O)N[C@@H](C(=O)N[C@H](C)C(=O)N[C@@H](C(=O)N[C@H](CC(N)=O)C(=O)N[C@H](CC(C)C)C(=O)N[C@H](C)C(=O)N[C@H](Cc1c[nH]c2ccccc12)C(=O)N[C@@H](C(=O)N[C@H](C)C(=O)NCC(=O)N[C@H](CC(N)=O)C(=O)N[C@H](CO)C(=O)N[C@H](CC(N)=O)C(=O)N[C@@H](CCCCN)C(=O)N[C@@H](Cc1c[nH]c2ccccc12)C(=O)N[C@H](C(=O)N[C@@H](Cc1c[nH]c2ccccc12)C(=O)N[C@@H](CCCCN)C(=O)O)[C@@H](C)O)[C@H](C)O)C(C)C)[C@H](C)O)[C@@H](C)O [Tf-D-LP4] | became diffuse | effectively induce cell death |
